Data published in publication PMC9221546, “New Phenylglycinamide Derivatives with Hybrid Structure as Candidates for New Broad-Spectrum Anticonvulsants” (Cells, 2022).
Like-named read-outs stand apart in the source and are kept apart here. Marks after values point to notes of the source that are not given here.

Key:
Na+ channel (site 2) = Na+ channel (site 2) radioligand binding; settings: rat cerebral cortex
TRPV1 (VR1) (h) [1] = biological target: T1, TRPV1 (VR1) (h) (Homo sapiens, UniProt Q8NER1); assay: TRPV1 (VR1) (h) antagonist effect functional assay; assay type: cell-based; settings: human recombinant CHO cells, read-out: % Inhibition of control agonist response, TRPV1 (antagonist effect)
T1 construct: host or cells: CHO
T1 sequence (Q8NER1 whole entry): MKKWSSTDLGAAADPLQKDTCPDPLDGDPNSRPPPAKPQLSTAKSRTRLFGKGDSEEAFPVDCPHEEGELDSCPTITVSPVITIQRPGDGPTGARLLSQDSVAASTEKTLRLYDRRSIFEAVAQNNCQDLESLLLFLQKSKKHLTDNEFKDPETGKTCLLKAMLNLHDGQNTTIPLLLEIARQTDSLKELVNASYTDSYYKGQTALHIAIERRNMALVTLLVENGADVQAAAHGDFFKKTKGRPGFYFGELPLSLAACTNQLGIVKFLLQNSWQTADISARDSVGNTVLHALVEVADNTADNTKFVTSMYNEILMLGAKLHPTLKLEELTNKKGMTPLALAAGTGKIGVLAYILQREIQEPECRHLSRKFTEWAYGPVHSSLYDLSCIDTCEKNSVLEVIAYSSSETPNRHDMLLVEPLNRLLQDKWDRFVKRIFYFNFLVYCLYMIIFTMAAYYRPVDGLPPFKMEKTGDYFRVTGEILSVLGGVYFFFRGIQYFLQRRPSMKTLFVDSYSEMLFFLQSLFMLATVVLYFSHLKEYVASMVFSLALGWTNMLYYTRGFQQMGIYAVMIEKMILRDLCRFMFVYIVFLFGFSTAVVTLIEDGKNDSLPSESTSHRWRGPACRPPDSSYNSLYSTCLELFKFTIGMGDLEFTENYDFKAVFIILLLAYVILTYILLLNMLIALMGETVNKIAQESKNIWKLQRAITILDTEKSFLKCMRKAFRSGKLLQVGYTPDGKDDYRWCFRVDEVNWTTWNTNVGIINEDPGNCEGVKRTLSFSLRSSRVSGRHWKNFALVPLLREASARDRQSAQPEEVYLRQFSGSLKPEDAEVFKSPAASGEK
Protocol: (§1) Binding/functional studies were carried out commercially in Eurofins Laboratories (Poitiers, France) and Eurofins Panlabs Discovery Services Taiwan, Ltd. (New Taipei City, Taiwan) using testing procedures that were reported previously (for details see Table S2).
(§2) Table S2. Radioligand binding and functional assays. […]
Assays were performed commercially in Eurofins Laboratories (Poitiers, France) or Eurofins Panlabs Discovery Services Taiwan, Ltd. (New Taipei City, Taiwan).
Table S3. In vitro TRPV1 channel antagonist activity for compounds 45–66 (concentration of 100 µM). […]
Cmpd % Inhibition of control Cmpd % Inhibition of control agonist responsea agonist responsea
*Source: human recombinant CHO cells. a Results showing activity higher than 50% are considered to represent […]
variability of the sign al around the control level. Assays were performed commercially in Eurofins Laboratories

[2] = tested on: MES-induced seizures in mice; settings: i.p., cited from earlier work
[3] = biological target: T2, Calcium Cav1.2 channels (dihydropyridine site) (Homo sapiens, UniProt Q13936); assay: Calcium Cav1.2 channel binding (dihydropyridine site, antagonist radioligand); settings: human recombinant HEK-293 cell, read-out: % Inhibition of Control Specific Binding, Cav1.2 (dihydropyridine site)
T2 construct: host or cells: HEK-293
T2 sequence (Q13936 whole entry): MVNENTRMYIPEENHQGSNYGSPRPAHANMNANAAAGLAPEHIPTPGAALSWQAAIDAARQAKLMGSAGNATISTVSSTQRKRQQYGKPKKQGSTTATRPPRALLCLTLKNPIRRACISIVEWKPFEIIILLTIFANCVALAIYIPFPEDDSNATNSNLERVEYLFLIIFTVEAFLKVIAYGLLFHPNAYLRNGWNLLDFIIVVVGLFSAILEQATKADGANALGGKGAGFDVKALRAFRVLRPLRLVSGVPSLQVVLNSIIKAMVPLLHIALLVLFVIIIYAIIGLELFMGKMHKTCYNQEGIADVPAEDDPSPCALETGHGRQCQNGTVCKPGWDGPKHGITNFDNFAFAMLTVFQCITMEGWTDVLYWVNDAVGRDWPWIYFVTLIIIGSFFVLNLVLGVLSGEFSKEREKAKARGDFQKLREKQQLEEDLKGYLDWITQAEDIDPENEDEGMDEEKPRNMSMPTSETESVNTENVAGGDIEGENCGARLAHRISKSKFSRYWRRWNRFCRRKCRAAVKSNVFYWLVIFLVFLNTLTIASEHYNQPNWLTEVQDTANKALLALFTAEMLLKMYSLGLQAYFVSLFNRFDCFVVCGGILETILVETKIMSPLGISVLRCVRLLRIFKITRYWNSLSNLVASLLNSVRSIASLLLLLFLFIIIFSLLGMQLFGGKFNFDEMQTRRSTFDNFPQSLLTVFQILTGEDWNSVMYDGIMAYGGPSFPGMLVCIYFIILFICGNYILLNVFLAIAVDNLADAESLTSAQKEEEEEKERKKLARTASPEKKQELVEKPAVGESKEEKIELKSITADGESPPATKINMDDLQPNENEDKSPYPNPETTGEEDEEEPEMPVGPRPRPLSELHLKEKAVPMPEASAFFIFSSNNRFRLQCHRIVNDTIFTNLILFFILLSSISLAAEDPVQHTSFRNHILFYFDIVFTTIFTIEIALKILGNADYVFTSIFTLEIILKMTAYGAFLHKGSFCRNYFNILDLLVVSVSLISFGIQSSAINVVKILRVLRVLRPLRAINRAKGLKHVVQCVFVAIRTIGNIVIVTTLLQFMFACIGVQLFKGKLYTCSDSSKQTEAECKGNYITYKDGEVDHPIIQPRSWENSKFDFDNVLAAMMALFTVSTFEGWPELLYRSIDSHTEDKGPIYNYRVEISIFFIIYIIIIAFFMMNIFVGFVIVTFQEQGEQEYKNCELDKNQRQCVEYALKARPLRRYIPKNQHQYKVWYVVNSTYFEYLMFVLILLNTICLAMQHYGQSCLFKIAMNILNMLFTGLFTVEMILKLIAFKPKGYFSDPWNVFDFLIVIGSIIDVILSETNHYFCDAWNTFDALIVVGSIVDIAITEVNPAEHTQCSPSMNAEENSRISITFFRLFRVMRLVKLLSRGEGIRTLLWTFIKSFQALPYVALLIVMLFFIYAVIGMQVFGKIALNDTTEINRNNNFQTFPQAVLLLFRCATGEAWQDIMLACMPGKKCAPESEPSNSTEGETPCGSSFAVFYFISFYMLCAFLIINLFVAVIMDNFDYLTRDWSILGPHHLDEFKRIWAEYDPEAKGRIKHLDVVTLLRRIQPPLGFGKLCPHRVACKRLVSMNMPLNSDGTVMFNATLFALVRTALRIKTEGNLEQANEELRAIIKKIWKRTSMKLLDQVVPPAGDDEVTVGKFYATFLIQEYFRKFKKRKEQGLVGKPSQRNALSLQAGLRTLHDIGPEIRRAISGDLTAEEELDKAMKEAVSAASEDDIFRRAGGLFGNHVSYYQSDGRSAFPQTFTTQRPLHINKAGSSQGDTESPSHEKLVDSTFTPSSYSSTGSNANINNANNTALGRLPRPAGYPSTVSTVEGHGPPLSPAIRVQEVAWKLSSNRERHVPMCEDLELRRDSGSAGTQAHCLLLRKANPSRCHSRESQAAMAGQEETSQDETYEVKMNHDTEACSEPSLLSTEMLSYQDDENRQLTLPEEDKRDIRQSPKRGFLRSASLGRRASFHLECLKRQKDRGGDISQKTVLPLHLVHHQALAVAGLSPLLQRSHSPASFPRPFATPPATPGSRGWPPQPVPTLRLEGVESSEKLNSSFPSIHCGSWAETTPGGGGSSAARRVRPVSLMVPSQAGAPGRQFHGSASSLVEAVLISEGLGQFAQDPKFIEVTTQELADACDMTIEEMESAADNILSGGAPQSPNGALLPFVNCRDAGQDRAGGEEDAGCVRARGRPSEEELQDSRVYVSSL
T2 sequence (Q08289 whole entry partner): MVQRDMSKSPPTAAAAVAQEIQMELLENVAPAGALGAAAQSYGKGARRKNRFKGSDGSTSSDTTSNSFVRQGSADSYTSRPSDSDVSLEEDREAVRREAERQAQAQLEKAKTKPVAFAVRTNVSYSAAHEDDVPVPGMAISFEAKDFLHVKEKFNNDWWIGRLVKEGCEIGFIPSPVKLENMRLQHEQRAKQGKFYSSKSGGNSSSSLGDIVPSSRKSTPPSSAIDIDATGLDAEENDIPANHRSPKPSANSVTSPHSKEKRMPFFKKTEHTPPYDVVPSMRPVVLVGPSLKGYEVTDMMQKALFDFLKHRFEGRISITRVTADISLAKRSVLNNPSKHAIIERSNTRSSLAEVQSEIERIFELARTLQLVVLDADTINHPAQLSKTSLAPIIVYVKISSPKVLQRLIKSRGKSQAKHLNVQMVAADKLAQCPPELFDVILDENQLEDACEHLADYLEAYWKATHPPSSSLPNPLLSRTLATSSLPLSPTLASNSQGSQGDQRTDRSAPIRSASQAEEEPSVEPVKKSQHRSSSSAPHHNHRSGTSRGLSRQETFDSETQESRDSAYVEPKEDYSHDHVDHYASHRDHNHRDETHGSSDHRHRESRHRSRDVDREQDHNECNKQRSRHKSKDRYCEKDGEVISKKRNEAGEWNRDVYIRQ
T2 sequence (P54289 25-956 partner limits assumed): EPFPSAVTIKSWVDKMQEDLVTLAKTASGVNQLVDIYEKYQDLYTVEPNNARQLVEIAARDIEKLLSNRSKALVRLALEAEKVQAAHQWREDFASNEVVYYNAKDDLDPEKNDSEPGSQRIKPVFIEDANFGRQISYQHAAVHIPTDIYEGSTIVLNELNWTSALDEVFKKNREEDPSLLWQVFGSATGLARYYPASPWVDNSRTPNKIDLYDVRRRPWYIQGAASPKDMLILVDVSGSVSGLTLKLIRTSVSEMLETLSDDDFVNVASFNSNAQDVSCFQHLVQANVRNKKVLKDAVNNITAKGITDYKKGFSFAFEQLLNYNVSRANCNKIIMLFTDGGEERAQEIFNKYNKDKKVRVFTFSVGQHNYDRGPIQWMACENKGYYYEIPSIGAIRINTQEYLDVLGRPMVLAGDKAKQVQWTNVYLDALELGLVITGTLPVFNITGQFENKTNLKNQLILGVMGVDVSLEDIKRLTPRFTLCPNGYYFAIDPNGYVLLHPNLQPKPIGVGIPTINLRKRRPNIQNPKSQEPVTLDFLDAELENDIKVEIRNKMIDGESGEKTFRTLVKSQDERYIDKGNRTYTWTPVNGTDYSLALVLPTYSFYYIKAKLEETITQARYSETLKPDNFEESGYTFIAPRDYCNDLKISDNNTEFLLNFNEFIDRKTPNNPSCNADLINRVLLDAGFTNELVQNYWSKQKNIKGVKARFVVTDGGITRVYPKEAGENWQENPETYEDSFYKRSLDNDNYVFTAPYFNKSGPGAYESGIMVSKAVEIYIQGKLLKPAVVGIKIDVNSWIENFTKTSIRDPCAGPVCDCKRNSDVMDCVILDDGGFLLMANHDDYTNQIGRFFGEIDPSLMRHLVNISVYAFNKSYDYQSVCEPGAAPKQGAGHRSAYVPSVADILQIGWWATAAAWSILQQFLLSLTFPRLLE
T2 sequence (P54289 957-1103 partner limits assumed): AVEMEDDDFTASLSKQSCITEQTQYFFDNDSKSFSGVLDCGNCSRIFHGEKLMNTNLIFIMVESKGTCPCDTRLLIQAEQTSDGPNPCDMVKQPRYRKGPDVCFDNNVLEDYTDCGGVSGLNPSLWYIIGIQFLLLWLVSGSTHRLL

mice [4] = assay: Capsaicin-induced hypothermia model / core body temperature; assay type: in vivo; settings: compound 60 50 mg/kg, BCTC 20 mg/kg
Protocol: Capsaicin was dissolved in 1% DMSO and administered at a dose of 5 mg/kg at a time point 0 min. Compound 60 and BCTC (positive control) were suspended in 1% Tween 80 and administered 15 min before capsaicin (at time point -15 min). All compounds were injected i.p. at a constant volume of 10 mL/kg. Control animals received the respective vehicles (1% DMSO or 1% Tween 80). Changes in the rectal temperature were measured using an electronic thermometer (ThermoWorks, Alpine, UT, USA) by inserting the rectal probe to a depth of ~2 cm into the rectum of the mouse. The measurements were taken at −15, 0, 15, 30, 60, 90, 120, and 180 min. The differences in the rectal temperature from baseline (time -15 min for groups receiving compound 60 and BCTC in combination with vehicle or time 0 min for groups receiving vehicle and capsaicin or compound 60 and BCTC in combination with capsaicin) to the respective time point ΔT (°C) were then calculated and analyzed. The results are shown in Figure 4 (see Section 3 Results and Discussion).
Figure 4 Effects of compound 60 and BCTC alone (A) or in combination with capsaicin (B) on the core body temperature in mice. Capsaicin (CPS) was injected at 0 min, as indicated by the arrow. Compound 60 or BCTC were administered 15 min prior to CPS injection. The temperature was measured at −15, 0, 15, 30, 60, 90, 120, and 180 min. Since body temperature returned to control values 60 min after CPS injection, subsequent measurements are not shown. Control animals received vehicles (1% DMSO or 1% Tween 80). All the compounds were administered i.p. Each experimental group consisted of seven to eight animals. The data are presented as the mean differences (ΔT) in rectal temperature from baseline (time −15 for A and time 0 for B) to the respective time point. The data were analyzed with one-way ANOVA followed by Tukey’s post hoc test. ** p < 0.01, *** p < 0.001, **** p < 0.0001 vs. the control group; ^#### p < 0.0001 vs. the CPS-treated group.

TRPV1 (VR1) (h) [5] = biological target: T1, TRPV1 (VR1) (h); assay: TRPV1 (VR1) (h) antagonist effect functional assay; assay type: cell-based; settings: human recombinant CHO cells
recombinant human CYP2C9 = biological target: T3, recombinant human CYP2C9 (Homo sapiens, UniProt P11712); assay: CYP2C9 P450-Glo luminescent assay; assay type: in vitro ADME
T3 construct: purchased Promega (Madison, WI, USA)
Protocol: The risk of potential DDIs was predicted with use of luminescent CYP3A4, 2D6, and 2C9 P450-Glo assays (Figure 6). […] However, such an effect was also observed in our previous studies for other pyrrolidine-2,5-dione derivatives. […] However, the potential risk of DDI of 60 was still assessed as very low, and was compared to the selective CYP2C9 inhibitor sulfaphenazole (Figure 6C).
The data were analyzed with one-way ANOVA, followed by Bonferroni’s Multiple Comparison Post Test (Graph Pad Prism 8.0.1 software, San Diego, CA, USA)): * p < 0.05, ** p < 0.01, *** p < 0.001 **** p < 0.0001. The compounds were examined in triplicate.

hepatoma HepG2 cell line = assay: Hepatotoxicity, HepG2 viability (MTS); assay type: cell-based; settings: 72 h treatment
Protocol: Figure 7 The effect of 53, 60, and 62, cytostatic drug doxorubicin (DX) and the mitochondrial toxin CCCP on the hepatoma HepG2 cell line viability after 72 h of incubation at 37 °C, 5% CO2. The data were analyzed with one-way ANOVA, followed by Bonferroni’s Comparison Test (Graph Pad Prism 8.0.1 software, San Diego, CA, USA)): ** p < 0.01, **** p < 0.0001 vs. negative control (DMSO 1% in growth media).

[6] = tested on: scPTZ-induced seizures in mice; assay: Subcutaneous pentylenetetrazole (scPTZ) seizure test; assay type: in vivo; settings: 100 mg/kg i.p., 0.5 h
Protocol: (§3) Adult male Albino Swiss mice that weighed between 22 and 26 g were used in the in vivo studies. They were housed under standardized housing conditions in colony cages and had free access to food as well as tap water. The animals were left to adapt under laboratory conditions for 7 days. All procedures involving animals and their care were performed in accordance with the current European Community and Polish legislation on animal experimentation.
(§4) In the initial screening studies, four mice per group were randomly assigned to each experimental group (each mouse was used only once). To evaluate the ED50 or TD50 values, 3–4 groups that consisted of eight animals were injected with various doses of tested compounds. The protective indexes (PIs) for the compounds that were investigated and reference ASDs were calculated by dividing the TD50 value, as determined in the chimney test (or rotarod test), by the respective ED50 value, as determined in the MES, scPTZ, or 6 Hz (32 mA or 44 mA) tests (PI = TD50/ED50). The PIs is a measure of the potential therapeutic window of the tested agent.
(§5) All substances were suspended in Tween 80 (1% aqueous solution) and administered i.p. as a single injection at a dose of 10 mL/kg. On each day of experimentation, fresh solutions were prepared. The results are summarized in Table S1 (screening data) and Table 2 (ED50, TD50, and PI values, see Section 3 Results and Discussion).
(§6) The detailed in vivo procedures are described elsewhere: the maximal electroshock seizure test (MES), the subcutaneous pentylenetetrazole seizure test (scPTZ), the 6 Hz psychomotor seizure model (32 mA and 44 mA), and the chimney test.
(§7) The basic animal seizure models such as the MES, 6 Hz (32 mA or 44 mA), and the scPTZ are still a standard in the discovery and development of new ASDs. In vivo screening approaches enable the identification of compounds with unidentified and potentially novel mechanisms of action besides substances with well-established pharmacodynamics. Bearing in mind the aforementioned facts, compounds 45–66 were initially studied in the MES test and in the 6 Hz seizure model (32 mA) after intraperitoneal (i.p.) administration at a screening dose of 100 mg/kg in mice at a time point of 0.5 h (the screening group consisted of four mice, the results obtained are summarized in Table S1). It should be stressed that the MES test is an experimental model of human tonic–clonic epilepsy as well as partial convulsions with or without secondary generalization, the 6 Hz model (32 mA) corresponds to human focal epilepsy, whereas the scPTZ test relates to human generalized absence or myoclonic seizures.

[7] = Metabolic stability in human liver microsomes (HLMs)
[8] = tested on: MES-induced seizures in mice; assay: Maximal electroshock seizure (MES) test; assay type: in vivo; settings: for protection in MES screening / responders at 100 mg/kg: 100 mg/kg i.p., 0.5 h; for protection in MES screening: four mice; for responders at 100 mg/kg: read-out: MES screening: number of mice protected/number of mice tested (converted)
Protocol: as §3, §4, §5, §6, §7
(§8) We also established the median toxic doses (TD50) in the chimney test 0.5 h post i.p. administration of these compounds. Both the aforementioned parameters enabled the calculation of the protective indexes (PIs).

[9] = biological target: T4, Cav1.2 (h) calcium ion channel (Homo sapiens, UniProt Q13936); assay: Cav1.2 (h) calcium ion channel cell-based antagonist calcium flux assay; settings: HEK293, human recombinant HEK-293 cell, read-out: % Inhibition of control agonist response, Cav1.2 calcium flux
T4 construct: Eurofins
Protocol: as §1, §2
TRPV1 (VR1) (h) (antagonist effect)
Cav1.2 (L-type) (h) calcium ion channel cell-based antagonist calcium flux assay
Assays were performed commercially in Eurofins Laboratories (Poitiers, France) or Eurofins Panlabs Discovery
Services Taiwan, Ltd. (New Taipei City, Taiwan). […]

[10] = tested on: 6 Hz (32 mA) seizures in mice; assay: 6 Hz (32 mA) psychomotor seizure model; assay type: in vivo
Protocol: as §3, §4, §5, §6, §7, §8

[11] = tested on: 6 Hz (44 mA) seizures in mice; settings: i.p., pretreatment 0.5 h; cited from earlier work
mice [12] = settings: i.p., acute neurological deficit, cited from earlier work
[13] = tested on: 6 Hz (32 mA) seizures in mice; settings: i.p., pretreatment 0.5 h (LEV 1.0 h); cited from earlier work
[14] = Mus musculus, ip, mice, pretreatment time 0.5 h, (95% confidence limits)
[15] = Mus musculus, ip, 100 mg/kg i.p., 0.5 h, read-out: 6 Hz (32 mA) screening: number of mice protected/number of mice tested (converted)

SMILES: C=C(C)[C@@H]1CCC(C)=C[C@H]1c1c(O)cc(CCCCC)cc1O [CBD, cannabidiol, reference compound]
- % Inhibition of Control Specific Binding, Na+ channel (site 2) (Na+ channel (site 2); 100 µM): 94.8 (100) %
- inhibition at 100 µM (TRPV1 (VR1) (h) [1]): 48%
- ED50 MES ([2]; pretreatment 1.0 h): 80.0 (65.5−96.0) mg/kg
- inhibition at 100 µM ([3]; 100 µM): 58%

SMILES: COc1cc(CNC(=O)CCCC/C=C/C(C)C)ccc1O [capsaicin]
- effect on rectal (core body) temperature, given alone (mice [4]; i.p., capsaicin 5 mg/kg): produced a significant drop in the rectal temperature

SMILES: CC(=O)NC(C(=O)N1CCN(c2cccc(SC(F)(F)F)c2)CC1)c1ccccc1 (stereo not shown) [Compound 62, N-(2-oxo-1-phenyl-2-(4-(3-((trifluoromethyl)thio)phenyl)piperazin-1-yl)ethyl)acet--amide]
- IC50 (TRPV1 (VR1) (h) [5]): 10 µM
- Kb (TRPV1 (VR1) (h) [5]): 1.4 µM
- influence on CYP2C9 activity (recombinant human CYP2C9): weak inhibition effect
- effect on HepG2 cell viability (hepatotoxicity) (hepatoma HepG2 cell line): highest hepatotoxic risk
- % Inhibition of Control Specific Binding, Na+ channel (site 2) (Na+ channel (site 2); 10 µM): 57.0 (10) %
- scPTZ screening: number of mice protected/number of mice tested [6]: 0/4
- remaining at 2 h ([7]; human, human liver microsomes): 84%
- Metabolic Pathway ([7]; metabolites after 120 min incubation with HLMs): hydroxylation
- inhibition at 100 µM (TRPV1 (VR1) (h) [1]): 135%
- protection in MES screening [8]: 75%
- responders at 100 mg/kg ([8]; Mus musculus, ip): 75%
- ED50 [8, 14]: 76.1 mg/kg
- inhibition at 10 µM [9]: 65%
- responders at 100 mg/kg ([10]; Mus musculus, ip, 100 mg/kg i.p., 0.5 h, four mice, read-out: protection in 6 Hz (32 mA) screening): 100%
- responders at 100 mg/kg [10, 15]: 100%
- ED50 [10, 14]: 33.2 mg/kg
- inhibition at 10 µM ([3]; 10 µM): 12%

SMILES: CC[C@@H](C(N)=O)N1CCCC1=O [LEV, Levetiracetam]
- ED50 6 Hz (44 mA) [11]: 204.0 (154.5–269.5) mg/kg
- TD50 (rotarod test) (mice [12]; ref 32): >500 ** mg/kg
- TD50 (rotarod test) (mice [12]; ref 34): >500 ** mg/kg
- ED50 MES ([2]; pretreatment 0.5 h (LEV 1.0 h)): >500 mg/kg

SMILES: CCCC(CCC)C(=O)O [VPA, Valproic acid]
- ED50 6 Hz (32 mA) [13]: 130.6 (117.6−145.2) mg/kg

SMILES: CC(C)(C)c1ccc(NC(=O)N2CCN(c3ncccc3Cl)CC2)cc1 [BCTC, N-(4-Tertiarybutylphenyl)-4-(3-Chloropyridin-2-Yl)Tetrahydropyrazine-1(2H)-Carbox-Amide, reference compound]
- scPTZ screening: number of mice protected/number of mice tested [6]: 0/4
- protection in scPTZ screening ([6]; four mice): ineffective
- protection in MES screening [8]: ineffective
- responders at 100 mg/kg ([8]; Mus musculus, ip): 0%
- protection in 6 Hz (32 mA) screening ([10]; 100 mg/kg i.p., 0.5 h, four mice): ineffective
- responders at 100 mg/kg [10, 15]: 0%
- effect on capsaicin-induced hypothermia (co-administration) (mice [4]; i.p. 15 min before capsaicin 5 mg/kg): prevented the capsaicin-evoked decrease in body temperature

SMILES: COC[C@@H](NC(C)=O)C(=O)NCc1ccccc1 [LCS, Lacosamide]
- ED50 6 Hz (44 mA) [11]: 6.9 (5.4–8.6) mg/kg
- ED50 6 Hz (32 mA) [13]: 5.3 (3.5−7.8) mg/kg
- ED50 MES ([2]; pretreatment 0.5 h (LEV 1.0 h)): 9.2 (8.5−10.0) mg/kg

SMILES: O=C(C(c1ccccc1)N1C(=O)CCC1=O)N1CCN(c2cccc(C(F)(F)F)c2)CC1 (stereo not shown) [KA-104]
- ED50 6 Hz (44 mA) [11]: 73.2 (57.4–93.4) mg/kg
- ED50 6 Hz (32 mA) [13]: 22.4 (17.4−28.8) mg/kg
- ED50 MES ([2]; pretreatment 0.5 h (LEV 1.0 h)): 23.7 (18.4−31.2) mg/kg
